Laboratory results: publication PMC7970697, “Inhibition and Induction by Poziotinib of Different Rat Cytochrome P450 Enzymes In Vivo and in an In Vitro Cocktail Method” (Frontiers in Pharmacology, 2021)
Values belong to the molecule of their own block, whether it stands above or below them.

Assays:
[1] = test system: cytochrome P450 (CYP) enzymes; set-up: method as in Dungo et al., 2013; conditions: ref Dungo et al., 2013; cited from earlier work
cyp2b1 = test system: cyp2b1; set-up: method as in Ma et al., 2015; conditions: in rats; ref Ma et al., 2015; cited from earlier work
CYP2C9 = conditions: 2019, cited from earlier work
CYP2D6 = conditions: cited from earlier work
in vivo = conditions: for Vd/F: Vz/F
Method: Samples were analyzed by a UPLC-MS/MS system equipped with a triple quadrupole mass spectrometer (Waters Corp., Milford, MA, United States) and Acquity UPLC BEH C18 column (1.7 μm, 2.1 × 50 mm) at 40°C. The mobile phase consisted of acetonitrile (A) and 0.1% formic acid (B) with a linear gradient elution at 0.4 ml/min for 3 min.
Twelve male Sprague-Dawley rats (230 ± 20 g) were randomly divided into treated and control groups, with 6 in each group. […] The supernatant was mixed with 200 μL of acetonitrile and 20 μL of 0.5 μg/ml diazepam (IS), vortexed for 30 s, centrifuged at 13,000 rpm for 5 min, and the supernatant was injected into the UPLC-MS/MS system for analysis.
Pharmacokinetic parameters were calculated using DAS software (Version 3.2.8). SPSS software (version 16.0; SPSS Inc., Chicago, IL, United States) was used to analyze the significance of differences between the main pharmacokinetic parameters. p < 0.05 was considered statistically significant. GraphPad (version 8.0; GraphPad Software Inc., San Diego, CA, United States) was used to calculate IC50 and plot the plasma concentration-time curves and inhibition plots (type of inhibition, time- and concentration-dependence).

[2] = male, Sprague-Dawley, rat, in vivo, po
[3] = male, Sprague-Dawley, rat, plasma, po, Control group: oral probe cocktail only (10 mg/kg; tolbutamide 1 mg/kg), rats, n = 6
[4] = male, Sprague-Dawley, rat, plasma, po, Treated group: oral probe cocktail (10 mg/kg; tolbutamide 1 mg/kg) after 7 days oral poziotinib 5 mg/kg, rats, n = 6
[5] = rats, poziotinib 5 mg/kg 7 days vs probes only
[6] = rats, poziotinib 5 mg/kg 7 days vs probes only (Discussion)

SMILES: CN(C)C/C=C/C(=O)Nc1cc2c(Nc3ccc(F)c(Cl)c3)ncnc2cc1O[C@H]1CCOC1 [Afatinib]
inhibition or induction of CYP enzymes [1]: no inhibition or induction

SMILES: C#Cc1cccc(Nc2ncnc3cc(OCCOC)c(OCCOC)cc23)c1 [Erlotinib]
effect on cyp2b1 activity (cyp2b1): may inhibit
effect on metabolism of warfarin, a CYP2C9 substrate (CYP2C9; in human, ref Hiraide et al.): inhibit warfarin metabolism

SMILES: COc1cc2ncnc(Nc3ccc(F)c(Cl)c3)c2cc1OCCCN1CCOCC1 [Gefitinib]
effect on CYP2C9 (CYP2C9; ref Prommer, 2004, Hiraide et al.): inhibit
effect on CYP2D6 (CYP2D6; ref Prommer, 2004, Hiraide et al., 2019): inhibit

Tmax (in vivo; [2]): 2.67 ± 0.52 h
t1/2z (in vivo; [2]): 9.10 ± 4.20 h
Tmax (in vivo; male, Sprague-Dawley, rat, in vivo, po, Tmax): 2.33 ± 0.52 h
half-life (in vivo; male, Sprague-Dawley, rat, in vivo, po, t1/2z): 763 ± 290 min
CL/F (in vivo; male, Sprague-Dawley, rat, plasma, po, CLz/F, Control group: oral probe cocktail only (10 mg/kg; tolbutamide 1 mg/kg), rats, n = 6): 0.333 mL/min/kg
Cmax (in vivo; [3]): 3700 ng/mL
Cmax (in vivo; [4]): 4920 ng/mL
Vd/F (in vivo; [3]): 0.27 ± 0.04 L/kg
Vd/F (in vivo; [4]): 0.25 ± 0.1 L/kg
AUC (0–∞) increasing by, treated vs control group (in vivo; [5]): 51.60%
CLz/F lower than control group by (in vivo; [5]): 50%
AUC(0–t) of treated group as fold of control group value (in vivo; [6]): 1.43 fold
CLz/F of treated group as fold of control group value (in vivo; [6]): 0.5 fold
SMILES: CCCCNC(=O)NS(=O)(=O)c1ccc(C)cc1 [Tolbutamide]

SMILES: COc1cc2ncnc(Nc3ccc(F)c(Cl)c3)c2cc1NC(=O)/C=C/CN1CCCCC1 [dacomitinib]
effect on CY2D6 (CYP2D6; ref Shirley, 2018): potent inhibitor
